In assay [1] the test system is 60 clinical P. aeruginosa isolates. Description: Antibiotic susceptibility testing, NEG MIC Type 30 panel on MicroScan WalkAway-96 SI, MICs interpreted according to NCCLS guidelines. Type of assay: cell-based, Pseudomonas aeruginosa. The settings on record: for MIC: Pseudomonas aeruginosa, read-out: 60 MIC. The source says: The wild-type reference strain P. aeruginosa PAO1 was obtained from the ATCC (AT47085). The other P. aeruginosa strains were collected from patients at the Robert Bosch Hospital in Stuttgart, Germany. They were recovered from respiratory samples (n=51), swabs (n=5), urine (n=2) and faeces (n=2). All isolates were identified with the API 20NE system (bioMerieux, Marcy l'Etoile, France) and the NEG Breakpoint Combo Type 30 panel on the MicroScan WalkAway®-96 SI system (Dade Behring, Liederbach, Germany). All bacterial strains were either routinely cultured at 37° C. on Mueller-Hinton (MH) agar or grown in Luria Bertani broth (LB).
(§1) The antibiotic susceptibility was determined with the NEG MIC Type 30 panel on the MicroScan WalkAway®-96 SI system. The MICs were interpreted according to the NCCLS guidelines.
The test collective of P. aeruginosa isolates was recovered from three intensive care units (ICU) or other hospital wards as far as an unusual multidrug resistance was observed. […] 4.

The test system is the same in assay [2]. Set-up: species or system Pseudomonas aeruginosa. The settings on record: predicted from mutations and resistance genes found by array in 60 isolates. Here is the method: The 60 P. aeruginosa isolates were tested with the array applying the same hybridization conditions. Tab.
In order to compare genotype and phenotype based resistance profiles, we calculated a cumulative resistance rate against different groups of antibiotics based on the array data (Tab. 6).

For assay [3], the system named is 3 consecutive Pseudomonas aeruginosa isolates from the same patient. The experiment in a line: Phenotypic susceptibility profile of 3 consecutive isolates from the same patient. Type of assay: cell-based. The settings on record: S/R phenotype. Here is the method: as §1
Setting [4] is: Table 3, P. aeruginosa test collective.
[5] abbreviates: Table 6, MIC tied to the resistant isolates, NCCLS interpretation.
The mark [6] stands for this setting: Table 6, phenotypic resistance rate.

Read-outs that look alike come from different tables or passages of the source.

Results on 8 compounds are retold here after patent US20060211002A1, “Antibiotic susceptibility and virulence factor detection in Pseudomonas aeruginosa” (priority 2005, published 2006).

For orientation: MIC means the smallest concentration in the dilution series that meets the test's criterion for growth inhibition.

In the case of `CC(C)(O/N=C(\C(=O)N[C@@H]1C(=O)N2C(C(=O)[O-])=C(C[n+]3ccccc3)CS[C@H]12)c1csc(N)n1)C(=O)O` [Ceftazidim, ceftazidime], the “% of resistant isolates out of 60” value in assay [1] (setting [4]) and in assay [1] (setting [6]) was 33% each time. Besides, the “Number of resistant isolates out of 60” value in assay [1] (setting [4]) came to 20; in assay [1] (Table 6, phenotypic resistance), 20. In assay [1] (setting [5]), the “60 MIC” value is over 16 µg/mL.

In the case of colistin, the “% of resistant isolates out of 60” value in assay [1] (setting [4]) and in assay [1] (setting [6]) was 0% throughout. In addition, the “Number of resistant isolates out of 60” value in assay [1] (setting [4]) was 0; in assay [1] (Table 6, phenotypic resistance), 0. In assay [1] (test collective of isolates), this compound had a resistance rate of 0%. For the same compound, the “Cumulative resistance predicttion deduced from array” value in assay [2] was 0%.

With `CCN1CCN(C(=O)N[C@@H](C(=O)N[C@@H]2C(=O)N3[C@@H]2SC(C)(C)[C@@H]3C(=O)O)c2ccccc2)C(=O)C1=O` [Piperacillin, piperacillin], in assay [1] (setting [5]), the MIC was over 64 µg/mL. For the same compound, the “% of resistant isolates out of 60” value in assay [1] (setting [4]) and in assay [1] (setting [6]) was 35% in each case. Moreover, the “Number of resistant isolates out of 60” value in assay [1] (setting [4]) worked out at 21; in assay [1] (Table 6, phenotypic resistance) it was 21. Also, in assay [2], the “Cumulative resistance predicttion deduced from array” value is 38%.

As for `C[C@@H](O)[C@H]1C(=O)N2C(C(=O)O)=C(SCCN=CN)C[C@H]12` [Imipenem, imipenem], the MIC in assay [1] is over 8 µg/mL. Besides, the “% of resistant isolates out of 60” value in assay [1] (setting [4]) and in assay [1] (setting [6]) was 45% in each case. Further, the “Number of resistant isolates out of 60” value in assay [1] (setting [4]) turned out to be 27; in assay [1] (Table 6, phenotypic resistance) it was 27. Further, the susceptibility rate result in assay [1] (test collective of isolates) is given as “less than 55%”.

In the case of gentamicin, the “% of resistant isolates out of 60” value in assay [1] (setting [4]) and in assay [1] (setting [6]) was 37% in each case. For the same compound, the “Number of resistant isolates out of 60” value in assay [1] (setting [4]) was determined as 22; in assay [1] (Table 6, phenotypic resistance), 22. Also, the “60 MIC” value in assay [1] (setting [5]) was over 8 µg/mL. In assay [2], the “Cumulative resistance predicttion deduced from array” value is reported as 45%.

Turning to `NC[C@H]1O[C@H](O[C@H]2[C@H](O)[C@@H](O[C@H]3O[C@H](CO)[C@@H](O)[C@H](N)[C@H]3O)[C@H](N)C[C@@H]2N)[C@H](N)C[C@@H]1O` [Tobramycin, tobramycin], in assay [1], the MIC was over 8 µg/mL. Further, the “% of resistant isolates out of 60” value in assay [1] (setting [4]) and in assay [1] (setting [6]) was 10% each time. In addition, the “Number of resistant isolates out of 60” value is reported as 6 in assay [1] (setting [4]) and 6 in assay [1] (Table 6, phenotypic resistance). Besides, the “Susceptibility profile, Isolate 2” value in assay [3] (collected one week after the first isolate) was “susceptible”. Further, the “Susceptibility profile, Isolate 1” value in assay [3] (first isolate) is “susceptible”. For the same compound, in assay [3] (last of three isolates collected within three weeks), the “Susceptibility profile, Isolate 3” value is “resistance”.

As for `C[C@H]1COc2c(N3CCN(C)CC3)c(F)cc3c(=O)c(C(=O)O)cn1c23` [Levofloxacin, levofloxacin], in assay [1], the MIC is over 4 µg/mL. For the same compound, the “% of resistant isolates out of 60” value in assay [1] (setting [4]) and in assay [1] (setting [6]) was 43% in each case. For the same compound, the “Number of resistant isolates out of 60” value in assay [1] (setting [4]) was 26; in assay [1] (Table 6, phenotypic resistance), 26.

Consider `NCC[C@H](O)C(=O)N[C@@H]1C[C@H](N)[C@@H](O[C@H]2O[C@H](CN)[C@@H](O)[C@H](O)[C@H]2O)[C@H](O)[C@H]1O[C@H]1O[C@H](CO)[C@@H](O)[C@H](N)[C@H]1O` [Amikacin, amikacin], for which, in assay [1], the MIC is over 32 µg/mL. Further, the “% of resistant isolates out of 60” value in assay [1] (setting [4]) and in assay [1] (setting [6]) was 17% each time. Also, the “Number of resistant isolates out of 60” value was determined as 10 in assay [1] (setting [4]) and 10 in assay [1] (Table 6, phenotypic resistance).
